For series [1], the system named is DNCB-induced atopic dermatitis in Balb/c mice. Briefly: Efficacy evaluation test of DNCB-induced atopic dermatitis in Balb/c mice model (Biological Example 2). The format is in vivo. Conditions: BID × 10. Here is the method: 70 healthy male SPF Balb/c mice, each of which the weight was 19-21 g, were randomly divided into 7 groups by body weight. There were 10 mice in each group.
Before the test, the hair around the right ear of the mouse was removed to reduce the interference in the drug adhesion to the hair.
The start of the test was recorded as Day 1. After the end of the 18th day of the test, blood was taken from each animal to detect the concentration of immunoglobulin (IgE) in the serum (in accordance with the kit instructions). Both ears of the animal were cut off. Ear pieces were cut by an 8 mm punch at the fixed position of the ears and weighed. Differences in the swelling degrees of two ears were calculated.
The IgE concentrations in the serum of different groups on the 18th day were analyzed and compared statistically with One-Way Anova in SPSS 17, respectively. The G test method was used to delete outliers. p<0.05 indicated there were statistical differences. Ear swelling degree (mg)=right ear weight (mg)−left ear weight (mg); Inhibitory rate of ear swelling degree (%)=1−(ear swelling degree of drug administration group−ear swelling degree of blank control group)/(ear swelling degree of model control group−ear swelling degree of blank control group)×100%; Inhibitory rate of IgE (%)=1−(IgE concentration in administration group−IgE concentration in blank control group)/(IgE concentration in model control group−IgE concentration in blank control group)×100%.

The subject of series [2] is Phorbol ester (TPA)-induced ear swelling in mice. The series can be described thus: Inhibition of phorbol ester (TPA)-induced ear swelling in mice (Biological Example 5). The format is in vivo. Conditions: ICR mice, 5 hours after TPA modeling; for Ear Swelling Rate / Inhibitory Rate of Ear Swelling Degree: 2 mg/mouse on right ear; for Ear Swelling Rate: (right−left)/left ear weight; for Inhibitory Rate of Ear Swelling Degree: vs model and blank control; for Ear Swelling Degree: 50 mg/mL in acetone, 40 μL in 2 administrations (2 mg/mouse). As for the experimental part: 72 male ICR mice were selected and divided into 9 groups. There were 8 mice in each group.
Before the test, the animals were grouped and the hair around the right ear of the mice was removed.
20 μL of respective drug was applied to the animals in each test group (a blank solvent was applied to the model control group). Modeling and induction were carried out after 1 h 10 min. Except for the blank group, 20 μL of TPA at a concentration of 125 μg/mL were applied to the right ears of the animals for induction. After induction for 10 minutes, 20 μL of respective drug were applied to the right ears of the animals in each test group (a blank solvent was applied to the model control group).
After modeling for 5 hours, ear pieces of both sides on the same location of animals in each group were taken with a punch and weighed to calculate the ear swelling degree, ear swelling rate and inhibitory rate.
The ear swelling degree and ear swelling rate after modeling and administration for 5 hours were analyzed and tested with One-Way ANOVA multiple-group test index in SPSS17.0. P<0.05 indicated there were statistical differences. Ear swelling degree (mg)=right ear weight (mg)−left ear weight (mg); Ear swelling rate (%)=(right ear weight−left ear weight)/left ear weight×100%; Inhibitory rate of ear swelling degree (%)=1−(ear swelling degree of drug administration group−ear swelling degree of blank control group)/(ear swelling degree of model control group−ear swelling degree of blank control group)×100%.

In the case of `CCOC(=O)C[C@H](c1ccc(OC)c(OCC)c1)N1C(=O)c2cccc(NC(C)=O)c2C1=O` [Example 51, ethyl (R)-3-(4-acetamido-1,3-dioxoisoindolin-2-yl)-3-(3-ethoxy-4-methoxyphenyl)propionate], in series [1] (1 mg/mouse on ear, 18th day, vs model and blank control), the “Inhibitory Rate of Ear Swelling” value came out at 25.0%. Moreover, the “Weight Changes of Animals, Day 1” value in series [1] (Balb/c mice, 1 mg/mouse (50 mg/mL, 20 μL) on ear, Day 1, Mean ± S.D.) stood at 21.8 ± 0.7 g. Besides, in series [1] (Balb/c mice, 1 mg/mouse on ear, Day 10, Mean ± S.D.), the “Weight Changes of Animals, Day 10” value came to 22.8 ± 1.2 g. For the same molecule, in series [1] (Balb/c mice, 1 mg/mouse on ear, Day 17, Mean ± S.D.), the “Weight Changes of Animals, Day 17” value worked out at 23.1 ± 1.1 g. In addition, in series [1] (Balb/c mice, 1 mg/mouse on ear, Day 18, Mean ± S.D.), the “Weight Changes of Animals, Day 18” value came to 22.9 ± 1.3 g. Also, the “Ear Swelling Degree” value in series [1] (right minus left ear piece weight, 1 mg/mouse on ear, 18th day) stood at 21.7 ± 4.5 mg. For the same molecule, in series [1] (serum, 1 mg/mouse on ear, 18th day), the “IgE Concentration” value worked out at 6599.5 ± 2996.0 ng/mL. Besides, in series [1] (serum, 1 mg/mouse on ear, 18th day, vs model and blank control), the “Inhibitory Rate of IgE Concentration” value turned out to be 23.3%.
In the case of `CCOc1cc(C(CC(=O)OC)N2C(=O)c3cccc(N(C)C(C)=O)c3C2=O)ccc1OC` (centres unmarked) [Example 24, methyl 3-(4-(N-methylacetamido)-1,3-dioxoisoindolin-2-yl)-3-(3-ethoxy-4-methoxyphenyl)propionate], in series [2], the “Ear Swelling Rate” value is on record as 43.0 ± 11.8 %, the “Inhibitory Rate of Ear Swelling Degree” value was determined as 84.2% and the “Ear Swelling Degree” value is listed as 5.9 ± 1.7 mg.
Take `CCOc1cc(C(CC(=O)OC)N2C(=O)c3ccc(NC(C)=O)cc3C2=O)ccc1OC` (centres unmarked) [Example 25, methyl 3-(5-acetamido-1,3-dioxoisoindolin-2-yl)-3-(3-ethoxy-4-methoxyphenyl)propionate]: in series [2], the “Ear Swelling Rate” value came out at 59.1 ± 17.5 %, the “Inhibitory Rate of Ear Swelling Degree” value worked out at 73.6% and the “Ear Swelling Degree” value came to 8.5 ± 2.7 mg.
Taken in the same sequence, the figures for `CCOc1cc(C(CC(=O)OC(C)C)N2C(=O)c3cccc(NC(C)=O)c3C2=O)ccc1OC` (centres unmarked) [Example 12, isopropyl 3-(4-acetamido-1,3-dioxoisoindolin-2-yl)-3-(3-ethoxy-4-methoxyphenyl)propionate] were 39.6 ± 14.0 %, 84.8% and 5.8 ± 2.3 mg.
